Results as given in patent US12421212B2, “Substituted benzenecarboxamides as IL-17A modulators” (DiCE Alpha, Inc., priority 2019, dated 2025).

Molecular target: T1, IL-17A/A (Homo sapiens, UniProt Q16552)
T1 construct: purchased Genscript Z03228
T1 sequence (Q16552 24-155): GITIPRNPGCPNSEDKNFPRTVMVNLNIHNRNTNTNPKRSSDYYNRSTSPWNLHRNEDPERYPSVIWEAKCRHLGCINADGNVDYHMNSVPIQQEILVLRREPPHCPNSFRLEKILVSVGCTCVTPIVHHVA
Assay: IL-17A/A HEK-Blue Cell Assay
Type: cell-based
Conditions: HEK-Blue IL-17A reporter cell line, SEAP readout at A630, 20 hours incubation with IL-17A/A, top concentration 10 uM, 1 uM or 0.3 uM; for IC50: read-out: IL-17A/A inhibition (pIC50) (converted)

| IC50 [nM] | SMILES | IL-17A/A inhibition (pIC50) |
| --- | --- | --- |
| 10 to 100 | CCn1nnnc1C(=O)N[C@H](C(=O)Nc1ccc([C@H](C)[C@@H](NC(=O)c2cnns2)C(=O)N2CCN(C)CC2)cc1F)[C@H]1CC[C@H](C)CC1 [Compound 525] |  |
| 10 to 100 | CCC(=O)N[C@@H](C(=O)N1CCN(C)CC1)[C@@H](C)c1ccc(NC(=O)[C@@H](NC(=O)C(F)(F)c2ccc(OC)nc2)C2CCCCCC2)cc1 [Compound 222] |  |
| 10 to 100 | CCC(=O)N[C@@H](C(=O)N1CCS(=O)(=O)CC1)[C@@H](C)c1ccc(NC(=O)[C@@H](NC(=O)c2ccnn2CC)C2CCCCCC2)c(F)c1 [Compound 353] |  |
| < 10 | CCn1nccc1C(=O)N[C@H](C(=O)Nc1ccc([C@H](C)[C@@H](NC(=O)NC2CC2)C(=O)N2CCN(C)CC2)cc1F)C1CCCCCC1 [Compound 338] |  |
| 100 to 10000 | CCn1nccc1C(=O)N[C@H](C(=O)Nc1ccc(C[C@@H](NC(=O)CC2CC2)C(=O)N2CCN(C)CC2)cc1F)C1CCCCC1 [Compound 650] |  |
| 100 to 10000 | CCC(=O)N[C@H](Cc1ccc(NC(=O)[C@@H](NC(=O)c2ccnn2CC)C2CCCCC2)cc1Cl)C(=O)N1CCN(C)CC1 [Compound 691] |  |
| < 10 | C[C@@H](c1ccc(NC(=O)[C@@H](NC(=O)C(F)(F)c2cccc(C#N)c2)C2CCCCC2)cc1)[C@@H](NC(=O)c1cnns1)C(=O)N1CCN(C)CC1 [Compound 301] |  |
|  | CCC(=O)N[C@@H](C(=O)N1CCN(C)CC1)[C@@H](C)c1ccc(NC(=O)[C@@H](NC(=O)C(F)(F)C2CC2)C2CCCCC2)c(F)c1 [Compound 242] | X2b (compounds were evaluated up to 1 uM and inhibited activity at 1 uM by less than 20%) |
| < 10 | [2H]C1([2H])N(C)C([2H])([2H])C([2H])([2H])N(C(=O)[C@H](NC(=O)CC)[C@@H](C)c2ccc(NC(=O)[C@@H](NC(=O)c3ccnn3CC)[C@H]3CC[C@H](C)CC3)c(F)c2)C1([2H])[2H] [Compound 573] |  |
| 100 to 10000 | CCC(=O)N[C@@H](C(=O)N1CCN(C)CC1)[C@@H](C)c1ccc(NC(=O)[C@@H](NC(=O)c2ccnn2CC)C2CCCCC2)cc1 [Compound 639] |  |
| 10 to 100 | CCn1nccc1C(=O)N[C@H](C(=O)Nc1ccc([C@H](C)[C@@H](NC(=O)c2ccnn2C2CCN(C)CC2)C(=O)N2CCN(C)CC2)cc1F)[C@H]1CC[C@H](C)CC1 [Compound 486] |  |
|  | CCC(=O)N[C@H](Cc1ccc(NC(=O)[C@@H](NC(=O)c2coc3c2C(=O)NCC3)C2CCCCC2)c(F)c1)C(=O)N1CCN(C)CC1 [Compound 708] | X2b (compounds were evaluated up to 1 uM and inhibited activity at 1 uM by less than 20%) |
| 10 to 100 | CCn1nccc1C(=O)N[C@H](C(=O)Nc1ccc([C@H](C)[C@@H](NC(=O)c2cncs2)C(=O)N2CCN(C)CC2)cc1F)C1CCCCC1 [Compound 303] |  |
| 10 to 100 | C[C@@H](c1ccc(NC(=O)[C@@H](NC(=O)C(F)(F)c2cccc(C#N)c2)C2CCCCCC2)c(F)c1)[C@@H](O)C(=O)N1CCN(C)CC1 [Compound 383] |  |
| < 10 | CCC(=O)N[C@@H](C(=O)N1CCN(C)CC1)[C@@H](C)c1ccc(NC(=O)[C@@H](NC(=O)c2coc3cc(OC)ccc23)C2CCCCCC2)c(F)c1 [Compound 258] |  |
| 100 to 10000 | CCn1nccc1C(=O)N[C@H](C(=O)Nc1ccc(C[C@@H](NC(=O)c2ccnn2-c2ccc(=O)[nH]c2)C(=O)N2CCN(C)CC2)cc1F)C1CCCCC1 [Compound 623] |  |
|  | CCC(=O)N[C@H](Cc1ccc(NC(=O)[C@H](Cc2cccc(Cl)c2)NC(=O)c2ccnn2CC)c(F)c1)C(=O)N1CCN(C)CC1 [Compound 726] | X2b (compounds were evaluated up to 1 uM and inhibited activity at 1 uM by less than 20%) |
| 10 to 100 | CCC(=O)N[C@@H](C(=O)N1CCN(C)CC1)[C@@H](C)c1ccc(NC(=O)[C@@H](NC(=O)C(F)(F)c2cccc(NS(C)(=O)=O)c2)C2CCCCC2)c(F)c1 [Compound 251] |  |
|  | CCC(=O)NC(C(=O)NCC1CCC1)C(C)c1ccc(NC(=O)[C@@H](NC(=O)c2ccnn2CC)[C@H]2CC[C@H](C)CC2)c(F)c1 (single isomer, unassigned) [Compound 662] | X3a (compounds were evaluated up to 0.3 uM and did not inhibit activity by >80%, however they showed some activity at 0.3 uM (less than 80% and more than 20%)) |
| 10 to 100 | CCC(=O)N[C@@H](C(=O)N1CCN(C)CC1)[C@@H](C)c1ccc(NC(=O)C(NC(=O)c2ccnn2CC)C(CC)c2ccc(Cl)cc2)c(F)c1 (single isomer, unassigned) [Compound 562] |  |
| 10 to 100 | CCC(=O)N[C@@H](C(=O)N1CCN(C)CC1)[C@@H](C)c1ccc(NC(=O)[C@@H](NC(=O)C(F)(F)c2ccc3[nH]ncc3c2)C2CCCCC2)c(F)c1 [Compound 245] |  |
| 10 to 100 | CCc1nonc1C(=O)N[C@H](C(=O)Nc1ccc([C@H](C)[C@@H](NC(=O)[C@H](C)F)C(=O)N2CCN(C)CC2)cc1F)[C@H]1CC[C@H](C)CC1 [Compound 491] |  |

| IC50 [nM] | SMILES | IL-17A/A inhibition (pIC50) |
| --- | --- | --- |
| 100 to 10000 | CCC(=O)N[C@@H](C(=O)N1CCN(C)CC1)C(OC)c1ccc(NC(=O)[C@@H](NC(=O)c2ccnn2CC)[C@H]2CC[C@H](C)CC2)c(F)c1 (some centres unmarked) [Compound 572] |  |
|  | CCC(=O)N[C@H](Cc1ccc(NC(=O)[C@@H](NC(=O)c2ccc(C(=O)NC)n2C)C2CCCCC2)c(F)c1)C(=O)N1CCN(C)CC1 [Compound 780] | X1b (compounds were evaluated up to 10 uM and inhibited activity at 10 uM by less than 20%) |
| 10 to 100 | CCn1ncnc1C(=O)N[C@H](C(=O)Nc1ccc([C@H](C)[C@@H](NC(=O)c2cnns2)C(=O)N2CCN(C)CC2)cc1F)[C@H]1CC[C@H](C)CC1 [Compound 410] |  |
| 10 to 100 | CCC(=O)N[C@@H](C(=O)N1CCC(F)(F)CC1)[C@@H](C)c1ccc(NC(=O)[C@@H](NC(=O)c2nonc2CC)[C@H]2CC[C@H](C)CC2)c(F)c1 [Compound 468] |  |
|  | CCC(=O)N[C@@H](C(=O)N1CCN(C)CC1)[C@@H](C)c1ccc(NC(=O)[C@H](NC(=O)c2ccnn2CC)[C@H]2CC[C@H](C)CC2)c(F)c1 [Compound 541] | X3b (compounds were evaluated up to 0.3 uM and inhibited activity at 0.3 uM by less than 20%) |
| 10 to 100 | CCC(=O)N[C@@H](C(=O)N1CCC(CC(=O)O)CC1)[C@@H](C)c1ccc(NC(=O)[C@@H](NC(=O)c2ccnn2CC)[C@H]2CC[C@H](C)CC2)c(F)c1 [Compound 422] |  |
|  | CCC(=O)N[C@H](Cc1ccc(NC(=O)[C@@H](NC(=O)c2ccnn2CC)C2CCCCC2)c(F)c1)C(=O)N1CCNCC1 [Compound 746] | X2b (compounds were evaluated up to 1 uM and inhibited activity at 1 uM by less than 20%) |
| < 10 | COc1ccc(C(F)(F)C(=O)N[C@H](C(=O)Nc2ccc([C@H](C)[C@@H](NC(=O)c3cnns3)C(=O)N3CCN(C)CC3)cc2F)C2CCCCC2)cn1 [Compound 224] |  |
| 10 to 100 | C[C@@H](c1ccc(NC(=O)[C@@H](NC(=O)C(F)(F)c2cccc(C#N)c2)C2CCCCC2)c(F)c1)[C@@H](NC(=O)NC1CCC1)C(=O)N1CCN(C)CC1 [Compound 318] |  |
|  | CCC(=O)N[C@H](C(=O)N1CCN(C)CC1)[C@@H](C)c1ccc(NC(=O)[C@@H](NC(=O)c2ccnn2CC)[C@H]2CC[C@H](C)CC2)c(F)c1 [Compound 543] | X3b (compounds were evaluated up to 0.3 uM and inhibited activity at 0.3 uM by less than 20%) |
| 10 to 100 | CCc1nonc1C(=O)N[C@H](C(=O)Nc1ccc([C@H](C)[C@@H](NC(=O)N2CCCC2)C(=O)N2CCN(C)CC2)cc1F)[C@H]1CC[C@H](C)CC1 [Compound 515] |  |
| 10 to 100 | CCC(=O)N[C@@H](C(=O)N1CCN(C)CC1)[C@@H](C)c1ccc(NC(=O)[C@@H](NC(=O)C(F)(F)c2ccc3c(c2)OCO3)C2CCCCC2)c(F)c1 [Compound 244] |  |
| < 10 | CCC(=O)N[C@@H](C(=O)N1CCN(C)C[C@@H]1C)[C@@H](C)c1ccc(NC(=O)[C@@H](NC(=O)c2nonc2CC)[C@H]2CC[C@H](C)CC2)c(F)c1 [Compound 456] |  |
|  | CCC(=O)N[C@H](Cc1ccc(NC(=O)[C@H](Cc2ccc(C(F)(F)F)cc2)NC(=O)c2ccnn2CC)c(F)c1)C(=O)N1CCN(C)CC1 [Compound 723] | X2b (compounds were evaluated up to 1 uM and inhibited activity at 1 uM by less than 20%) |
| 100 to 10000 | CCC(=O)N[C@H](Cc1ccc(NC(=O)[C@@H](NC(=O)C(F)(F)c2ccccc2)C2CCCCC2)c(F)c1)C(=O)N1CCN(C)CC1 [Compound 204] |  |
| 10 to 100 | CCC(=O)N[C@@H](C(=O)N1CCN(Cc2ccccc2)CC1)[C@@H](C)c1ccc(NC(=O)[C@@H](NC(=O)C(F)(F)c2cncc(OC)c2)[C@H]2CC[C@H](C)CC2)c(F)c1 [Compound 532] |  |
| 10 to 100 | COc1ncc(C(F)(F)C(=O)N[C@H](C(=O)Nc2ccc([C@H](C)[C@@H](NC(=O)c3cnns3)C(=O)N3CCN(C)CC3)cc2F)[C@H]2CC[C@H](C)CC2)cn1 [Compound 621] |  |
|  | CCc1nonc1C(=O)N[C@H](C(=O)Nc1ccc([C@H](C)[C@@H](NC(=O)c2ncccc2OC)C(=O)N2CCN(C)CC2)cc1F)[C@H]1CC[C@H](C)CC1 [Compound 578] | X3b (compounds were evaluated up to 0.3 uM and inhibited activity at 0.3 uM by less than 20%) |
|  | CCC(=O)N[C@H](Cc1ccc(NC(=O)[C@@H](NC(=O)c2ccnn2CC)C2CCCCC2)c(F)c1)C(=O)NCCN(C)C [Compound 749] | X2a (compounds were evaluated up to 1 uM and did not inhibit activity by >80%, however they showed some activity at 1 uM (less than 80% and more than 20%)) |
| 10 to 100 | CCc1ccoc1C(=O)N[C@H](C(=O)Nc1ccc([C@H](C)[C@@H](NC(=O)c2cnns2)C(=O)N2CCN(C)CC2)cc1F)[C@H]1CC[C@H](C)CC1 [Compound 409] |  |
| 10 to 100 | CCC(=O)N[C@@H](C(=O)N1CCN(C)CC1)[C@@H](C)c1ccc(NC(=O)[C@@H](NC(=O)c2conc2CC)C2CCCCC2)cc1 [Compound 298] |  |
| 10 to 100 | CCC(=O)N[C@@H](C(=O)N1CCN(C(C)C)CC1)[C@@H](C)c1ccc(NC(=O)[C@@H](NC(=O)c2ccnn2CC)C2CCCCC2)c(F)c1 [Compound 362] |  |
